# Several values for one entry are separate records, joined by “and”; a condition that tells them apart may be missing. Equal values may be shown once.
# Legend:
# [1] = test system: IL-1RA; experiment: IL-1RA release by human corneal epithelial cell cultures; type: cell-based; details: 24 h, FIG. 7
# Description: Media=negative control; LPS=cultures treated with lipopolysaccharide for 24 h; Doxy=cultures treated with doxycycline (5 μg/ml) for 24 h; CMT 3=cultures treated with chemically modified tetracycline CMT 3 (1 μg/ml) for 24 hr; Doxy+LPS=cultures treated with LPS and doxycycline (5 μg/ml) for 24 h; CMT 3+LPS=cultures treated with LPS and chemically modified tetracycline CMT 3 (1 μg/ml) for 24 hr.
# IL-1RA has an anti-inflammatory effect by competing with the pro-inflammatory forms of IL-1 (IL-1α and IL-1β) for the type 1 receptor. […] Furthermore, the concentration of IL-1RA in corneal epithelial cultures stimulated with LPS and treated with either doxycycline or CMT-3 was greater than cultures exposed to LPS alone (FIG. 7). These findings indicate tetracyclines are anti-inflammatory due to their ability to stimulate IL-1RA release by the human corneal epithelium.
# [2] = test system: pro-MMP9; experiment: pro-MMP9 activity in supernatant of human corneal epithelial cultures (gelatin zymogram); type: cell-based; details: doxycycline 5·g/ml for 24 hours, compared to untreated cultures; FIG. 8
# Description: FIG. 8 is a gelatin zymogram of human corneal epithelial cell supernatant: doxycycline treatment and MMP-3 activation. Lane Legend: (1) 92 kDa purified pro-MMP-9 standard (0.1 ng); (2) Corneal epithelial supernatant+50 μg/mL doxycycline; (3)Supernatant+50 μg/mL doxycycline+1.5 ng/μL MMP-3; (4) Supernatant+100 μg/mL doxycycline+1.5 ng/μL MMP-3; (5) Supernatant from cell culture pre-treated with doxycycline; (6) Supernatant from cell culture pre-treated with doxycycline+1.5 ng/μL MMP-3. Exposure of human corneal epithelial cultures to doxycycline (5·g/ml) for 24 hours decreased the level of pro-MMP9 activity in the supernatant by 70% compared to untreated cultures (FIG. 8). MMP-9 is the metalloproteinase responsible for initiating sterile corneal ulceration and it is also capable of cleaving precursor IL-1β into its mature form.
# [3] = test system: patients with meibomian gland disease and delayed tear clearance; experiment: Topical 0.025% doxycycline solution in patients with meibomian gland disease and delayed tear clearance (Example 6); type: in vivo, human
# Description: Tetracyclines and chemically modified tetracyclines for topical administration can be added to buffered and electrolyte balanced aqueous solutions, buffered and electrolyte balanced aqueous solutions with a lubricating polymer, mineral oil or petrolatum-based ointment, other oils, liposomes, cylcodextrins, sustained release polymers or gels in a range from 0.001 to 3% (weight per volume or weight per weight). These preparations can be administered to the preocular tear film or onto the eyelid skin or lid margin 1 to 6 times per day for a period up to the lifetime of the patient. For example, an eye drop solution comprising doxycycline as an active ingredient was prepared by dissolving pharmaceutical grade doxycycline hydrochloride powder in an electrolyte-balanced salt solution (BSS™, Alcon, Ft. Worth, Tex.) to a final concentration of 0.025%.
# The solution was prepared as described herein.
# [4] = test system: patients with ocular rosacea; experiment: Topical oxytetracycline ointment in patients with meibomian gland disease associated with rosacea and delayed tear clearance (Example 5); type: in vivo, human; parameters: key to Clinical Response (per patient): Excellent response, complete or almost complete relief of symptoms.; Good response, symptoms moderately, but not completed relieved
# Description: Eleven ( 11) patients with ocular irritation symptoms due to meibomian gland disease associated with rosacea and delayed tear clearance were treated with a commercially available oxytetracycline ointment (Terak, Akorn Pharmaceuticals) as a topical administration to the ocular surface or the eyelids. Seventy-three percent (73%) of these patients had complete resolution of irritation symptoms.
structure (smiles),measurement,setting,value
NC(=O)C1=C(O)C[C@@H]2C[C@@H]3Cc4cccc(O)c4C(=O)C3=C(O)[C@]2(O)C1=O [CMT-3],concentration of IL-1RA in LPS-stimulated cultures compared to LPS alone,[1]; LPS + doxycycline 5 μg/ml or CMT 3 1 μg/ml,greater
same,release of IL-1RA into the media compared to untreated cultures,[1]; doxycycline 5 μg/ml or CMT 3 1 μg/ml,significantly increased
C[C@H]1c2cccc(O)c2C(=O)C2=C(O)[C@]3(O)C(=O)C(C(N)=O)=C(O)[C@@H](N(C)C)[C@@H]3[C@@H](O)[C@@H]21 [doxycycline],decrease of the level of pro-MMP9 activity in the supernatant,[2],70%
same,RESPONSE (per patient),"[3]; 0.025% topical doxycycline solution, one line per patient 1-11, diagnosis MGD, DTC",no effect
same,patients with complete resolution of symptoms,"[3]; topical solution (doxycycline eye drops), 11 patients",more than 90%
CN(C)[C@@H]1C(O)=C(C(N)=O)C(=O)[C@@]2(O)C(O)=C3C(=O)c4c(O)cccc4[C@@](C)(O)[C@H]3[C@H](O)[C@@H]12 [oxytetracycline],patients with complete resolution of (irritation) symptoms,"[4]; topical ointment to ocular surface or eyelids, 11 patients",73%
same,patients who experienced burning from the medication,"[4]; topical ointment, 11 patients, one of which ceased treatment",Three
same,Clinical Response (per patient),"[4]; topical oxytetracycline ointment, one line per patient 1-11",G (3×) and E (8×)
same,"Comments (tolerability, per patient)","[4]; topical oxytetracycline ointment, per patient",mild burning
